The results in this text go back to patent US7169792B2, “Method of treating bacterial infections using gemifloxacin or a salt thereof and a β-lactam antibiotic” (priority 2002, dated 2007).

Where two headings read alike, the source gives them in different places.

Experiment [1] deals with clinically isolated P. aeruginosa. Description: checkerboard titration, gemifloxacin or ciprofloxacin with ceftazidime, 27 clinical isolates (Example 4). Particulars: for FICB: FIC of ceftazidime; for MIC: Pseudomonas aeruginosa. Format: cell-based, Pseudomonas aeruginosa. The method, then: The test organisms were clinical isolates collected in Korea. Organisms were frozen at −70 C prior to testing. Testing was done by the checkerboard method in 96-well plates using Mueller-Hinton broth. […] Ceftazidime was also dispensed alone in the first row in the first column. Test strains of P. aeruginosa were grown for 18 h in Mueller-Hinton broth, and then these overnight cultures were diluted with the same fresh medium to the density of approximately 10^7 CFU/mL. The bacterial concentrations were determined by measuring optical density or turbidity of the suspension and were verified by standard colony counts on antibiotic-free agar plates. A diluted bacterial solution was applied to 96-well plates containing serially diluted antimicrobial agents to yield 10^4 CFU per spot. Plates were incubated aerobically overnight.
(§1) Minimal inhibitory concentrations (MICs) for each separate drug were determined. For wells along the growth-no growth interface, synergy was determined by calculating the Fractional Inhibitory Concentration (FIC) index. The Fractional Inhibitory Concentration (FIC) indices were calculated using the following formula: FICindex=FICA+FICB=[A]/MICA+[B]/MICB • Wherein: • FICA(or B), is the FIC of drug A (or B) MICA (or B) is the MIC of the organism to drug A (or B) • A (or B) is concentration of drug A (or B) that is the lowest inhibitory concentration
(§2) The FIC indices were interpreted using the following criteria: • ≦0.5=Synergy • >0.5–1.0=Additive • >1.0–4.0=Indifference • >4.0=Antagonism

Experiment [2] relates to clinically isolated P. aeruginosa strains. Description: checkerboard method, gemifloxacin or ciprofloxacin with ceftazidime, 6 clinical isolates (Example 5). As to conditions: for FICB: FIC of ceftazidime; for MIC: Pseudomonas aeruginosa. It is filed as cell-based, Pseudomonas aeruginosa. The method, then:
as §1, §2
The test organisms were clinical isolates collected in Korea. Organisms were frozen at −70 C. prior to testing. […] Gemifloxacin or ciprofloxacin solution was dispensed alone in the first row and combined with ceftazidime in the remaining rows. Ceftazidime as also dispensed alone in the first row in the first column. Test strains of P. aeruginosa were grown for 18 h in Mueller-Hinton broth, and then these overnight cultures were diluted with the same fresh medium to the density of approximately 10^7 CFU/mL. The bacterial concentrations were determined by measuring optical density or turbidity of the suspension and were verified by standard colony counts on antibiotic-free agar plates. A diluted bacterial solution was applied to 96-well plates containing serially diluted antimicrobial agents to yield 5×10^5 CFU/mL. Plates were incubated at 35 C for 18 hours.
MICs for each separate drug were determined, and for wells along the growth-no growth interface, synergy was determined by calculating FIC Indices as in Example 4. FIC Indices were calculated and interpreted as in Example 4.

Experiment [3] deals with E. faecalis ATCC 29212. Nature of the experiment: checkerboard titration, gemifloxacin and cefotaxime (MIC, FIC). Format: cell-based, Enterococcus faecalis. The method, then: 1) The combined effect of gemifloxacin and cefotaxime was investigated in E. faecalis by using a checkerboard titration method. Evaluation for synergistic activity was carried out by calculation of fractional inhibitory concentrations (FICs) according to the method of Eliopoulos et al (1996, Antimicrobial Combinations, Antibiotics in Laboratory Medicine, Victor Lorian, 4th Edition, pp 337–338, Baltimore, Md., Williams and Wilkins).
E. faecalis ATCC 29212 was obtained from the SmithKline Beecham Anti-Infectives Research Culture Collection and stored at −80° C. in 10% glycerol. Before testing, the isolate was passaged onto agar plates (trypticase soy agar containing 5% sheeps blood) from the frozen stock for two consecutive days. Cation adjusted Mueller Hinton broth (BBL, Cockeysville, Md.) was used for the isolate.
(§3) Checkerboard microtitre broth dilution plates were prepared using the Hamilton MicroLab AT Plus system (Reno, Nev.). Two-fold serial dilutions (50 μl) of cefotaxime were made in columns 1 through 11 of a microtitre plate. Two-fold serial dilutions of gemifloxacin were prepared manually and the MicroLab AT Plus was used to dispense 25 μl of gemifloxacin at each concentration into rows A through G of the microtitre plate. The concentration range tested varied for each drug/organism combination to encompass the MIC endpoints of the individual components. Column 12 contained two fold serial dilutions of gemifloxacin only, and row H contained two fold serial dilutions of cefotaxie only. The last well (H) in column 12 was used as a positive growth control well, containing only medium and test isolate.
(§4) The bacteria were diluted to a 0.5 McFarland standard and then further diluted 1/50. Each well was inoculated with 25 μl of the isolate to give a final inoculum density of approximately 5×10^5 cfu/ml. The MicroLab AT Plus 2 was used to add the inoculum to the microtitre plates. After inoculation, the plates were covered with a 96 well microtitre plate lid and incubated at 35° C. in ambient air for 20–24 hours. A 10 μl aliquot of the inoculum was plated on trypticase soy agar containing 5% sheep blood to determine the purity of the final test inoculum.
(§5) Following incubation, a microtitre mirror reader (Cooke Instruments Ltd., England) was used to assist in determining the microdilution MIC endpoints. The MIC was determined as the lowest concentration of compound that inhibited visible growth of the organism.
(§6) The Fractional Inhibitory Concentrations (FICs) were calculated using the following formula: (A)/(MICA)+(B)/(MICB)=FICA+FICB=FICIndex wherein: • A is the MIC of drug A in the presence of drug B • B is the MIC of drug B in the presence of drug A • MIC A is the MIC of the organism to drug A alone • MIC B is the MIC of the organism to drug B alone • FIC A is the fractional inhibitory concentration of drug A • FIC B is the fractional inhibitory concentration of drug B
(§7) The FIC indices were interpreted using the following criteria: • ≦0.5=Synergy • >0.5–1=Additive • >1–2=Indifference • >2=Antagonism

Experiment [4] relates to S. saprophyticus 662. Nature of the experiment: checkerboard titration, gemifloxacin and amoxicillin (MIC, FIC). It is filed as cell-based, Staphylococcus saprophyticus.
Protocol: The concentration range tested varied for each drug/organism combination to encompass the MIC endpoints of the individual components. […] The last well (H) in column 12 was used as a positive growth control well, containing only medium and test isolate.
The bacteria were diluted to a 0.5 McFarland standard and then further diluted 1/50. Each well was inoculated with 25 μl of the isolate to give a final inoculum density of approximately 5×10^5 cfu/ml. […] After inoculation, the plates were covered with a 96 well microtitre plate lid and incubated at 35° C. in ambient air for 20–24 hours. A 10 μl aliquot of the inoculum was plated on trypticase soy agar containing 5% sheep blood to determine the purity of the final test inoculum.
2) S. saprophyticus 662 was obtained from the SmithKline Beecham Anti-Infectives Research Culture Collection and stored at −80° C. in 10% glycerol. Before testing, the isolate was passaged onto agar plates (trypticase soy agar containing 5% sheeps blood) from the frozen stock for two consecutive days. Cation adjusted Mueller Hinton broth (BBL, Cockeysville, Md.) was used for the isolate.
The combined effect of gemifloxacin and amoxicillin was investigated in S. saprophyticus 662 by using the checkerboard titration method described in Example 1.
For experiment [5], the system named is E. coli ATCC 25922. Description: checkerboard titration, gemifloxacin and cefaclor (MIC, FIC). It is filed as cell-based, Escherichia coli. The method, then:
as §3, §4, §5, §6, §7
3) E. coli ATCC 25922 was obtained from the SmithKline Beecham Anti-Infectives Research Culture Collection and stored at −80° C. in 10% glycerol. Before testing, the isolate was passaged onto agar plates (trypticase soy agar containing 5% sheeps blood) from the frozen stock for two consecutive days. […]
The combined effect of gemifloxacin and cefaclor was investigated in E. coli ATCC 25922 by using the checkerboard titration method described in Example 1. FIC Indices were calculated and interpreted as in Example 1.

Setting [6] is: drug alone, no unit in this line (other lines μg/ml).

The term MIC denotes the least concentration at which growth counts as inhibited. For `CC(C)(O/N=C(\C(=O)N[C@@H]1C(=O)N2C(C(=O)[O-])=C(C[n+]3ccccc3)CS[C@H]12)c1csc(N)n1)C(=O)O` [ceftazidime], the FICB in experiment [1] (P. aeruginosa 6003) was found to be 0.25; in experiment [1] (P. aeruginosa 6021), 0.25; in experiment [1] (P. aeruginosa 6030) it was 0.25; in experiment [1] (P. aeruginosa 6045) it was 0.13; in experiment [1] (P. aeruginosa 6047), 0.03; in experiment [1] (P. aeruginosa 6113), 0.25. Further, the FICB in experiment [1] (P. aeruginosa 6123) is reported as 0.25; in experiment [1] (P. aeruginosa 6173), 0.25; in experiment [1] (P. aeruginosa P032), 0.25; in experiment [1] (P. aeruginosa P036) it was 0.13; in experiment [1] (P. aeruginosa P039), 0.25; in experiment [2] (P. aeruginosa 6140), 0.25. The FICB in experiment [2] (P. aeruginosa 6168) and in experiment [2] (P. aeruginosa P003) was 0.06 in each case. Also, the MIC in experiment [1] (P. aeruginosa 6003, drug alone, read-out: ceftazidime MIC) stood at 4 µg/mL; in experiment [1] (P. aeruginosa 6003, in combination with gemifloxacin, read-out: Cceftazidime MIC), 1 µg/mL; in experiment [1] (P. aeruginosa 6021, drug alone, read-out: ceftazidime MIC) it was 4 µg/mL; in experiment [1] (P. aeruginosa 6021, in combination with gemifloxacin, read-out: Cceftazidime MIC), 1 µg/mL; in experiment [1] (P. aeruginosa 6030, drug alone, read-out: ceftazidime MIC), 4 µg/mL; in experiment [1] (P. aeruginosa 6030, in combination with gemifloxacin, read-out: Cceftazidime MIC) it was 1 µg/mL. For the same compound, the MIC in experiment [1] (P. aeruginosa 6045, drug alone, read-out: ceftazidime MIC) was determined as 64 µg/mL; in experiment [1] (P. aeruginosa 6045, in combination with gemifloxacin, read-out: Cceftazidime MIC), 8 µg/mL; in experiment [1] (P. aeruginosa 6047, drug alone, read-out: ceftazidime MIC), 64 µg/mL; in experiment [1] (P. aeruginosa 6047, in combination with gemifloxacin, read-out: Cceftazidime MIC), 2 µg/mL; in experiment [1] (P. aeruginosa 6113, drug alone, read-out: ceftazidime MIC), 8 µg/mL; in experiment [1] (P. aeruginosa 6113, in combination with gemifloxacin, read-out: Cceftazidime MIC), 2 µg/mL. Further, the MIC in experiment [1] (P. aeruginosa 6123, drug alone, read-out: ceftazidime MIC) stood at 4 µg/mL; in experiment [1] (P. aeruginosa 6123, in combination with gemifloxacin, read-out: Cceftazidime MIC), 1 µg/mL; in experiment [1] (P. aeruginosa 6173, drug alone, read-out: ceftazidime MIC), 4 µg/mL; in experiment [1] (P. aeruginosa 6173, in combination with gemifloxacin, read-out: Cceftazidime MIC) it was 1 µg/mL; in experiment [1] (P. aeruginosa P032, drug alone, read-out: ceftazidime MIC), 4 µg/mL; in experiment [1] (P. aeruginosa P032, in combination with gemifloxacin, read-out: Cceftazidime MIC), 1 µg/mL. For the same compound, the minimal inhibitory concentration (MIC) in experiment [1] (P. aeruginosa P036, drug alone, read-out: ceftazidime MIC) turned out to be 32 µg/mL; in experiment [1] (P. aeruginosa P036, in combination with gemifloxacin, read-out: Cceftazidime MIC), 4 µg/mL; in experiment [1] (P. aeruginosa P039, drug alone, read-out: ceftazidime MIC) it was 8 µg/mL; in experiment [1] (P. aeruginosa P039, in combination with gemifloxacin, read-out: Cceftazidime MIC), 2 µg/mL; in experiment [2] (P. aeruginosa 6140, drug alone, read-out: ceftazidime MIC) it was 32 µg/mL; in experiment [2] (P. aeruginosa 6140, in combination with gemifloxacin, read-out: Cceftazidime MIC) it was 8 µg/mL. Besides, the minimum inhibitory concentration (MIC) stood at 32 µg/mL in experiment [2] (P. aeruginosa 6168, drug alone, read-out: ceftazidime MIC); 2 µg/mL in experiment [2] (P. aeruginosa 6168, in combination with gemifloxacin, read-out: Cceftazidime MIC); 32 µg/mL in experiment [2] (P. aeruginosa P003, drug alone, read-out: ceftazidime MIC); 2 µg/mL in experiment [2] (P. aeruginosa P003, in combination with gemifloxacin, read-out: Cceftazidime MIC).
Take `CO/N=C(\C(=O)N[C@@H]1C(=O)N2C(C(=O)O)=C(COC(C)=O)CS[C@H]12)c1csc(N)n1` [cefotaxime]: the minimum inhibitory concentration (MIC) in experiment [3] (Enterococcus faecalis, ATCC29212, in presence of gemifloxacin 0.008 μg/ml, read-out: cefotaxime MIC) was determined as 16 µg/mL. In experiment [3] (setting [6]), the “cefotaxime MIC” value amounted to 256. In addition, the “amoxicillin MIC” value in experiment [4] (setting [6]) is 0.5.
Take `CC1(C)S[C@@H]2[C@H](NC(=O)[C@H](N)c3ccc(O)cc3)C(=O)N2[C@H]1C(=O)O` [amoxicillin]: the MIC in experiment [4] (Staphylococcus saprophyticus, 662, in presence of gemifloxacin 0.004 μg/ml, read-out: amoxicillin MIC) stood at 0.125 µg/mL.
On to `N[C@@H](C(=O)N[C@@H]1C(=O)N2C(C(=O)O)=C(Cl)CS[C@H]12)c1ccccc1` [cefaclor], for which the minimum inhibitory concentration (MIC) in experiment [5] (Escherichia coli, ATCC25922, in presence of gemifloxacin 0.002 μg/ml, read-out: cefaclor MIC) was 1 µg/mL. Besides, the “cefaclor MIC” value in experiment [5] (setting [6]) is 4.
